Laboratory results from patent publication EP4722201A1, “3-PHENYLISOXAZOLINE-5-CARBOXAMIDE COMPOUND, AND PREPARATION METHOD THEREFOR, HERBICIDAL COMPOSITION THEREOF AND USE THEREOF” (Jiangsu Flag Chemical Industry Co., Ltd, priority 2023, dated 2024).

Assays:
Experiment in all cases: Indoor herbicide activity determination, Seed Treatment; pre-emergence (soil spray)
Assay type in all cases: in vivo
Leptochloa chinensis = system: Leptochloa chinensis
In short: (§1)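 Pre-emergence soil spray; sandy soil pH 6.1, OM 1%, 7 cm pots; seeds covered, wetted from below, 24 h incubation under light at constant temperature; spray tower, 300 mm height, 390 mL/min nozzle flow; readout = % fresh-weight inhibition vs control at 21 d.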

Alopecurus myosuroides = system: Alopecurus myosuroides
In short: as §1

Digitaria sanguinalis = conditions: read-out: Herbicidal activities (inhibition rate) Digitaria sanguinalis; for inhibition at 120 g/ha: 120 g a.i./ha; for inhibition at 60 g/ha: 60 g a.i./ha
In short: as §1

Lolium multiflorum = system: Lolium multiflorum
In short: as §1

Alopecurus japonicus = system: Alopecurus japonicus
In short: as §1

Aegilops tauschii = conditions: read-out: Herbicidal activities (inhibition rate) Aegilops tauschii; for inhibition at 120 g/ha: 120 g a.i./ha; for inhibition at 60 g/ha: 60 g a.i./ha
In short: as §1

Cyperus iria = conditions: read-out: Herbicidal activities (inhibition rate) Cyperus iria; for inhibition at 120 g/ha: 120 g a.i./ha; for inhibition at 60 g/ha: 60 g a.i./ha
In short: as §1

Eleusine indica = system: Eleusine indica
In short: as §1

Eclipta prostrata = conditions: 60 g a.i./ha, read-out: Herbicidal activities (inhibition rate) Eclipta prostrata
In short: as §1

Row | SMILES | Herbicidal activities, Leptochloa chinensis (inhibition rate class) (Leptochloa chinensis; Dosage 240 g a.i./ha) | Herbicidal activities, Alopecurus myosuroides (inhibition rate class) (Alopecurus myosuroides; Dosage 240 g a.i./ha) | inhibition at 120 g/ha (Digitaria sanguinalis) [%] | Herbicidal activities, Lolium multiflorum (inhibition rate class) (Lolium multiflorum; Dosage 240 g a.i./ha) | Herbicidal activities, Alopecurus japonicus (inhibition rate class) (Alopecurus japonicus; Dosage 240 g a.i./ha) | inhibition at 120 g/ha (Aegilops tauschii) [%] | inhibition at 120 g/ha (Cyperus iria) [%] | Herbicidal activities, Leptochloa chinensis (inhibition rate class) (Leptochloa chinensis; Dosage 120 g a.i./ha) | Herbicidal activities, Alopecurus myosuroides (inhibition rate class) (Alopecurus myosuroides; Dosage 120 g a.i./ha) | inhibition at 60 g/ha (Digitaria sanguinalis) [%] | Herbicidal activities, Eleusine indica (inhibition rate class) (Eleusine indica; Dosage 120 g a.i./ha) | Herbicidal activities, Lolium multiflorum (inhibition rate class) (Lolium multiflorum; Dosage 120 g a.i./ha) | Herbicidal activities, Alopecurus japonicus (inhibition rate class) (Alopecurus japonicus; Dosage 120 g a.i./ha) | inhibition at 60 g/ha (Aegilops tauschii) [%] | other results
1 | COC(=O)[C@H]1C[C@@H](NC(=O)C2(C)CC(c3cc(F)cc(OC(F)(F)F)c3)=NO2)CO1 (mixture of isomers) [I-380] | A (A indicates that the inhibition rate was greater than or equal to 80% to 100%) | A (A indicates that the inhibition rate was greater than or equal to 80% to 100%) | 80 to 100 | A (A indicates that the inhibition rate was greater than or equal to 80% to 100%) | A (A indicates that the inhibition rate was greater than or equal to 80% to 100%) | 80 to 100 | 80 to 100 |  |  |  |  |  |  |  | 
2 | C=C[C@]1(C(=O)N[C@H]2C[C@@H](C(=O)OCC(F)(F)F)C2)CC(c2cc(F)cc(F)c2)=NO1 [I-15] |  |  |  |  |  |  |  | A (A indicates that the inhibition rate was greater than or equal to 80% to 100%) | A (A indicates that the inhibition rate was greater than or equal to 80% to 100%) | 60 to 80 | A (A indicates that the inhibition rate was greater than or equal to 80% to 100%) | A (A indicates that the inhibition rate was greater than or equal to 80% to 100%) | A (A indicates that the inhibition rate was greater than or equal to 80% to 100%) | 80 to 100 | 
3 | C=C[C@]1(C(=O)N[C@H]2C[C@@H](C(=O)O[C@H](C)COC)C2)CC(c2cc(F)cc(F)c2)=NO1 [I-19] |  |  |  |  |  |  |  | A (A indicates that the inhibition rate was greater than or equal to 80% to 100%) | A (A indicates that the inhibition rate was greater than or equal to 80% to 100%) | 80 to 100 | A (A indicates that the inhibition rate was greater than or equal to 80% to 100%) | A (A indicates that the inhibition rate was greater than or equal to 80% to 100%) | A (A indicates that the inhibition rate was greater than or equal to 80% to 100%) | 80 to 100 | inhibition at 60 g/ha (Cyperus iria): 60 to 80%
4 | CC[C@@H](C)OC(=O)[C@H]1C[C@@H](NC(=O)[C@@]2(C)CC(c3cc(F)cc(F)c3)=NO2)C1 [I-128] |  |  |  |  |  |  |  | A (A indicates that the inhibition rate was greater than or equal to 80% to 100%) | A (A indicates that the inhibition rate was greater than or equal to 80% to 100%) | 60 to 80 | A (A indicates that the inhibition rate was greater than or equal to 80% to 100%) | A (A indicates that the inhibition rate was greater than or equal to 80% to 100%) | A (A indicates that the inhibition rate was greater than or equal to 80% to 100%) | 80 to 100 | 
5 | CC[C@H](C)OC(=O)[C@H]1C[C@@H](NC(=O)[C@@]2(C)CC(c3cc(F)cc(F)c3)=NO2)C1 [I-129] |  |  |  |  |  |  |  | B (B indicates that the inhibition rate was greater than or equal to 60% to less than 80%) | A (A indicates that the inhibition rate was greater than or equal to 80% to 100%) | 60 to 80 | A (A indicates that the inhibition rate was greater than or equal to 80% to 100%) | A (A indicates that the inhibition rate was greater than or equal to 80% to 100%) | A (A indicates that the inhibition rate was greater than or equal to 80% to 100%) | 80 to 100 | 
6 | CSCCOC(=O)C1CC(NC(=O)C2(C)CC(c3cc(F)cc(OC(F)(F)F)c3)=NO2)CO1 (stereo not drawn) [I-382] | A (A indicates that the inhibition rate was greater than or equal to 80% to 100%) | A (A indicates that the inhibition rate was greater than or equal to 80% to 100%) | 80 to 100 | A (A indicates that the inhibition rate was greater than or equal to 80% to 100%) | A (A indicates that the inhibition rate was greater than or equal to 80% to 100%) | 80 to 100 | 80 to 100 |  |  |  |  |  |  |  | 
7 | C[S+]([O-])CCOC(=O)C1CC(NC(=O)C2(C)CC(c3cc(F)cc(OC(F)(F)F)c3)=NO2)CO1 (stereo not drawn) [I-383] | A (A indicates that the inhibition rate was greater than or equal to 80% to 100%) | A (A indicates that the inhibition rate was greater than or equal to 80% to 100%) | 80 to 100 | A (A indicates that the inhibition rate was greater than or equal to 80% to 100%) | A (A indicates that the inhibition rate was greater than or equal to 80% to 100%) | 80 to 100 | 60 to 80 |  |  |  |  |  |  |  | 
8 | CC1(C(=O)NC2COC(C(=O)OCCS(C)(=O)=O)C2)CC(c2cc(F)cc(OC(F)(F)F)c2)=NO1 (stereo not drawn) [I-384] | A (A indicates that the inhibition rate was greater than or equal to 80% to 100%) | A (A indicates that the inhibition rate was greater than or equal to 80% to 100%) | 80 to 100 | A (A indicates that the inhibition rate was greater than or equal to 80% to 100%) | A (A indicates that the inhibition rate was greater than or equal to 80% to 100%) | 80 to 100 | 60 to 80 |  |  |  |  |  |  |  | 
9 | COC(=O)C1CC(NC(=O)C2(C)CC(c3cc(F)cc(OC(F)F)c3)=NO2)CO1 (stereo not drawn) [I-385] | A (A indicates that the inhibition rate was greater than or equal to 80% to 100%) | A (A indicates that the inhibition rate was greater than or equal to 80% to 100%) | 60 to 80 | B (B indicates that the inhibition rate was greater than or equal to 60% to less than 80%) | A (A indicates that the inhibition rate was greater than or equal to 80% to 100%) | 80 to 100 |  |  |  |  |  |  |  |  | 
10 | C=C[C@]1(C(=O)N[C@H]2C=C[C@@H](C(=O)O[C@H](C)COC)C2)CC(c2cc(F)cc(OC(F)(F)F)c2)=NO1 [I-459] |  |  |  |  |  |  |  |  |  | 60 to 80 |  |  |  |  | Herbicidal activity (inhibition rate class), Leptochloa chinensis (Leptochloa chinensis; Dosage 120 g a.i./ha): A (A indicates that the inhibition rate was greater than or equal to 80% to 100%); Herbicidal activity (inhibition rate class), Alopecurus myosuroides (Alopecurus myosuroides; Dosage 120 g a.i./ha): A (A indicates that the inhibition rate was greater than or equal to 80% to 100%); inhibition at 60 g/ha (Eclipta prostrata): 60 to 80%; Herbicidal activity (inhibition rate class), Eleusine indica (Eleusine indica; Dosage 120 g a.i./ha): A (A indicates that the inhibition rate was greater than or equal to 80% to 100%); Herbicidal activity (inhibition rate class), Lolium multiflorum (Lolium multiflorum; Dosage 120 g a.i./ha): A (A indicates that the inhibition rate was greater than or equal to 80% to 100%); Herbicidal activity (inhibition rate class), Alopecurus japonicus (Alopecurus japonicus; Dosage 120 g a.i./ha): A (A indicates that the inhibition rate was greater than or equal to 80% to 100%); inhibition at 60 g/ha (Cyperus iria): 60 to 80%
11 | COC(=O)[C@@H]1C=C[C@H](NC(=O)C2(C)CC(c3cc(F)cc(OC(F)(F)F)c3)=NO2)C1 (stereo partly drawn) [I-489] |  |  | 60 to 80 |  |  | 80 to 100 | 80 to 100 |  |  |  |  |  |  |  | Herbicidal activity (inhibition rate class), Leptochloa chinensis (Leptochloa chinensis; Dosage 240 g a.i./ha): A (A indicates that the inhibition rate was greater than or equal to 80% to 100%); Herbicidal activity (inhibition rate class), Alopecurus myosuroides (Alopecurus myosuroides; Dosage 240 g a.i./ha): A (A indicates that the inhibition rate was greater than or equal to 80% to 100%); Herbicidal activity (inhibition rate class), Eleusine indica (Eleusine indica; Dosage 240 g a.i./ha): A (A indicates that the inhibition rate was greater than or equal to 80% to 100%); Herbicidal activity (inhibition rate class), Lolium multiflorum (Lolium multiflorum; Dosage 240 g a.i./ha): A (A indicates that the inhibition rate was greater than or equal to 80% to 100%); Herbicidal activity (inhibition rate class), Alopecurus japonicus (Alopecurus japonicus; Dosage 240 g a.i./ha): A (A indicates that the inhibition rate was greater than or equal to 80% to 100%)
12 | O=C(OCC1CCCC1)[C@@H]1C=C[C@H](NC(=O)[C@@]2(C(F)(F)F)CC(c3cc(F)cc(C(F)(F)F)c3)=NO2)C1 [I-519] |  |  |  |  |  |  |  |  |  | 80 to 100 |  |  |  |  | Herbicidal activity (inhibition rate class), Leptochloa chinensis (Leptochloa chinensis; Dosage 120 g a.i./ha): A (A indicates that the inhibition rate was greater than or equal to 80% to 100%); Herbicidal activity (inhibition rate class), Alopecurus myosuroides (Alopecurus myosuroides; Dosage 120 g a.i./ha): A (A indicates that the inhibition rate was greater than or equal to 80% to 100%); inhibition at 60 g/ha (Eclipta prostrata): 80 to 100%; Herbicidal activity (inhibition rate class), Eleusine indica (Eleusine indica; Dosage 120 g a.i./ha): A (A indicates that the inhibition rate was greater than or equal to 80% to 100%); Herbicidal activity (inhibition rate class), Lolium multiflorum (Lolium multiflorum; Dosage 120 g a.i./ha): A (A indicates that the inhibition rate was greater than or equal to 80% to 100%); Herbicidal activity (inhibition rate class), Alopecurus japonicus (Alopecurus japonicus; Dosage 120 g a.i./ha): A (A indicates that the inhibition rate was greater than or equal to 80% to 100%); inhibition at 60 g/ha (Cyperus iria): 80 to 100%
